Test results published in ChEMBL document CHEMBL5465560, “Selectivity Literature for EUbOPEN Chemogenomic Library” (2024).

Tests used:
[1] = biological target: T1, Serine/threonine-protein kinase TAO3 (Homo sapiens) (UniProt Q9H2K8); experiment: Selectivity interaction (Ambit KINOMEscan and KiNATiv profiling in Jurkat cells) EUB0000090b TAOK3; assay type: cell-based; conditions: at 1 µM
T1 sequence (whole entry): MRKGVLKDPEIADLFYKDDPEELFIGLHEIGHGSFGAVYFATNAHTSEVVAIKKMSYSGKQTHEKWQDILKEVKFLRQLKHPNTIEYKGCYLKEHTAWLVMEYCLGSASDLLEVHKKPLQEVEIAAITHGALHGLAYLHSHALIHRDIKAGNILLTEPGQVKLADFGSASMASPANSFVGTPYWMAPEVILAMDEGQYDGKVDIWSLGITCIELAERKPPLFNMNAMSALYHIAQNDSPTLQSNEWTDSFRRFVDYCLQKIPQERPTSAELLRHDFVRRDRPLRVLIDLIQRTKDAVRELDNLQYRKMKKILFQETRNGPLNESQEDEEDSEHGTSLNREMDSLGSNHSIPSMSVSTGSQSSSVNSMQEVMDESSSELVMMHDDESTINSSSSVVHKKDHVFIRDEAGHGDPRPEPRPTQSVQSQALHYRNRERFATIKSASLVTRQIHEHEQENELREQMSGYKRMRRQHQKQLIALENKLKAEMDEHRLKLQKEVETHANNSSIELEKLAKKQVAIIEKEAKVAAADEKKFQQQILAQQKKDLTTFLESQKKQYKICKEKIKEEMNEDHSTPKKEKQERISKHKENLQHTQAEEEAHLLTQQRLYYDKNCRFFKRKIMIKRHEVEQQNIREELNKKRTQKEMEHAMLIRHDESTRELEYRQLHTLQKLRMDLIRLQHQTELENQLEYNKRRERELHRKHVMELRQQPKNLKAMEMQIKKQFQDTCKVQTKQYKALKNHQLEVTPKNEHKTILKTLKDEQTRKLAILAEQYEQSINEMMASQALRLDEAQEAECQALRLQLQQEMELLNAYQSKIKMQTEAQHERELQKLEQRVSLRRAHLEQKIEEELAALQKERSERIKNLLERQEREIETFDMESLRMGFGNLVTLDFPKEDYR

[2] = biological target: T2, Cyclin-G-associated kinase (Homo sapiens) (UniProt O14976); experiment: Selectivity interaction (KinomeScan (DiscoverX)) EUB0001079a GAK; conditions: at 1 µM
T2 sequence (whole entry): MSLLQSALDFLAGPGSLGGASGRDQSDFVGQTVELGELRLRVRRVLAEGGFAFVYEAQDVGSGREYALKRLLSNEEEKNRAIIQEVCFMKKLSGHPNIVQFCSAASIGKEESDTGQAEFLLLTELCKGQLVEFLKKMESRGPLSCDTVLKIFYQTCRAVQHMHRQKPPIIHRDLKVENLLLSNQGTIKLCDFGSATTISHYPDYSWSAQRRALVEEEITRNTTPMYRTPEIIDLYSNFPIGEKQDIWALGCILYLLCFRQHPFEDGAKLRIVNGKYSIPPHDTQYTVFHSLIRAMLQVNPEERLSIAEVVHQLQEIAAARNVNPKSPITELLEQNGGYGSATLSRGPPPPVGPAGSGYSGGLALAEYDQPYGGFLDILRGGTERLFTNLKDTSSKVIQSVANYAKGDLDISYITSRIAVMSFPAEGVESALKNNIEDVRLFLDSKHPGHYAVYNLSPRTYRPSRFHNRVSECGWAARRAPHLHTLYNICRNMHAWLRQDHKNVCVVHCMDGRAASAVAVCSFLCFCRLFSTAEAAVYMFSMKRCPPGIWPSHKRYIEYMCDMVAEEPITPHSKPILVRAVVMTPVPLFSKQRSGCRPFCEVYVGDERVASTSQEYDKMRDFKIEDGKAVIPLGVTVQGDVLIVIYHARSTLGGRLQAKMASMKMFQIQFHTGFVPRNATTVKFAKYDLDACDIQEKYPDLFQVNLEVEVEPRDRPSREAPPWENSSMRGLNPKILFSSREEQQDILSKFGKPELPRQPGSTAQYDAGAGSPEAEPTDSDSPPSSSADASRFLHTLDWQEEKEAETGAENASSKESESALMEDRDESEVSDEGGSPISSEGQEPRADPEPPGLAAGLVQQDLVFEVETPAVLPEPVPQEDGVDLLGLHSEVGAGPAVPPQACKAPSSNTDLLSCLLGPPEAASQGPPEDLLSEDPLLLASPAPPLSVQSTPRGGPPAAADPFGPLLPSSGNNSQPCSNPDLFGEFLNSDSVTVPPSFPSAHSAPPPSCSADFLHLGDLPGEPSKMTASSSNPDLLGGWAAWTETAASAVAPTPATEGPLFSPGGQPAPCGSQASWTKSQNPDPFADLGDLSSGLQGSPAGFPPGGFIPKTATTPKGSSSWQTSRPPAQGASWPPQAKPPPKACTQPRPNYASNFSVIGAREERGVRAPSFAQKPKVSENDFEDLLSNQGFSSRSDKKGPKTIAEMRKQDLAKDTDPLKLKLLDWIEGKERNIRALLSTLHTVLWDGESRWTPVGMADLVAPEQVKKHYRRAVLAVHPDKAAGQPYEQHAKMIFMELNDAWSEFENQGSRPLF

[3] = biological target: Serine/threonine-protein kinase MRCK alpha (Homo sapiens) (UniProt Q5VT25); experiment: Selectivity interaction (KinomeScan (DiscoverX)) EUB0001079a CDC42BPA; conditions: at 1 µM
[4] = biological target: T3, Serine/threonine-protein kinase Chk1 (Homo sapiens) (UniProt O14757); experiment: Selectivity interaction (SelectScreen profiling (Invitrogen)) EUB0000607a CHEK1; conditions: at 2 µM
T3 sequence (whole entry): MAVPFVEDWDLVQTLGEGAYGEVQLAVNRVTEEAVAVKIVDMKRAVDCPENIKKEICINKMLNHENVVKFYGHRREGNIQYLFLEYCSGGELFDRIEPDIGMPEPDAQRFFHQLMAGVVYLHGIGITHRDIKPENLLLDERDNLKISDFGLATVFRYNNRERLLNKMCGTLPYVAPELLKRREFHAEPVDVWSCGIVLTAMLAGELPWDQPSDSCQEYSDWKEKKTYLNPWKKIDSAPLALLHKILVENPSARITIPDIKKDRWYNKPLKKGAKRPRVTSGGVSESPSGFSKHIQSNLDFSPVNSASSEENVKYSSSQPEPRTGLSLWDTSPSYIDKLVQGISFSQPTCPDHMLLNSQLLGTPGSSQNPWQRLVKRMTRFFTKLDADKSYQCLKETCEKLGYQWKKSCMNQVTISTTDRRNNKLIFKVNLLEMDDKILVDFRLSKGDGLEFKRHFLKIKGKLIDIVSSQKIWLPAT

[5] = biological target: Cyclin-dependent kinase 5 (Homo sapiens, UniProt Q00535); experiment: Selectivity interaction (ActivX KiNativ screen (kinase selectivity in THP-1 cell lysates)) EUB0000639a CDK5; assay type: subcellular; conditions: lysate, at 0.2 µM
[6] = biological target: Tyrosine-protein kinase Fes/Fps (Homo sapiens) (UniProt P07332); experiment: Selectivity interaction (KinomeScan (DiscoverX)) EUB0000695a FES; conditions: at 100 nM
[7] = biological target: Serine/threonine-protein kinase WNK2 (Homo sapiens) (UniProt Q9Y3S1); experiment: Selectivity interaction (KinomeScan (DiscoverX)) EUB0000695a WNK2; conditions: at 100 nM
Serine/threonine-protein kinase WNK2 (Homo sapiens), sequence (Q9Y3S1 whole entry): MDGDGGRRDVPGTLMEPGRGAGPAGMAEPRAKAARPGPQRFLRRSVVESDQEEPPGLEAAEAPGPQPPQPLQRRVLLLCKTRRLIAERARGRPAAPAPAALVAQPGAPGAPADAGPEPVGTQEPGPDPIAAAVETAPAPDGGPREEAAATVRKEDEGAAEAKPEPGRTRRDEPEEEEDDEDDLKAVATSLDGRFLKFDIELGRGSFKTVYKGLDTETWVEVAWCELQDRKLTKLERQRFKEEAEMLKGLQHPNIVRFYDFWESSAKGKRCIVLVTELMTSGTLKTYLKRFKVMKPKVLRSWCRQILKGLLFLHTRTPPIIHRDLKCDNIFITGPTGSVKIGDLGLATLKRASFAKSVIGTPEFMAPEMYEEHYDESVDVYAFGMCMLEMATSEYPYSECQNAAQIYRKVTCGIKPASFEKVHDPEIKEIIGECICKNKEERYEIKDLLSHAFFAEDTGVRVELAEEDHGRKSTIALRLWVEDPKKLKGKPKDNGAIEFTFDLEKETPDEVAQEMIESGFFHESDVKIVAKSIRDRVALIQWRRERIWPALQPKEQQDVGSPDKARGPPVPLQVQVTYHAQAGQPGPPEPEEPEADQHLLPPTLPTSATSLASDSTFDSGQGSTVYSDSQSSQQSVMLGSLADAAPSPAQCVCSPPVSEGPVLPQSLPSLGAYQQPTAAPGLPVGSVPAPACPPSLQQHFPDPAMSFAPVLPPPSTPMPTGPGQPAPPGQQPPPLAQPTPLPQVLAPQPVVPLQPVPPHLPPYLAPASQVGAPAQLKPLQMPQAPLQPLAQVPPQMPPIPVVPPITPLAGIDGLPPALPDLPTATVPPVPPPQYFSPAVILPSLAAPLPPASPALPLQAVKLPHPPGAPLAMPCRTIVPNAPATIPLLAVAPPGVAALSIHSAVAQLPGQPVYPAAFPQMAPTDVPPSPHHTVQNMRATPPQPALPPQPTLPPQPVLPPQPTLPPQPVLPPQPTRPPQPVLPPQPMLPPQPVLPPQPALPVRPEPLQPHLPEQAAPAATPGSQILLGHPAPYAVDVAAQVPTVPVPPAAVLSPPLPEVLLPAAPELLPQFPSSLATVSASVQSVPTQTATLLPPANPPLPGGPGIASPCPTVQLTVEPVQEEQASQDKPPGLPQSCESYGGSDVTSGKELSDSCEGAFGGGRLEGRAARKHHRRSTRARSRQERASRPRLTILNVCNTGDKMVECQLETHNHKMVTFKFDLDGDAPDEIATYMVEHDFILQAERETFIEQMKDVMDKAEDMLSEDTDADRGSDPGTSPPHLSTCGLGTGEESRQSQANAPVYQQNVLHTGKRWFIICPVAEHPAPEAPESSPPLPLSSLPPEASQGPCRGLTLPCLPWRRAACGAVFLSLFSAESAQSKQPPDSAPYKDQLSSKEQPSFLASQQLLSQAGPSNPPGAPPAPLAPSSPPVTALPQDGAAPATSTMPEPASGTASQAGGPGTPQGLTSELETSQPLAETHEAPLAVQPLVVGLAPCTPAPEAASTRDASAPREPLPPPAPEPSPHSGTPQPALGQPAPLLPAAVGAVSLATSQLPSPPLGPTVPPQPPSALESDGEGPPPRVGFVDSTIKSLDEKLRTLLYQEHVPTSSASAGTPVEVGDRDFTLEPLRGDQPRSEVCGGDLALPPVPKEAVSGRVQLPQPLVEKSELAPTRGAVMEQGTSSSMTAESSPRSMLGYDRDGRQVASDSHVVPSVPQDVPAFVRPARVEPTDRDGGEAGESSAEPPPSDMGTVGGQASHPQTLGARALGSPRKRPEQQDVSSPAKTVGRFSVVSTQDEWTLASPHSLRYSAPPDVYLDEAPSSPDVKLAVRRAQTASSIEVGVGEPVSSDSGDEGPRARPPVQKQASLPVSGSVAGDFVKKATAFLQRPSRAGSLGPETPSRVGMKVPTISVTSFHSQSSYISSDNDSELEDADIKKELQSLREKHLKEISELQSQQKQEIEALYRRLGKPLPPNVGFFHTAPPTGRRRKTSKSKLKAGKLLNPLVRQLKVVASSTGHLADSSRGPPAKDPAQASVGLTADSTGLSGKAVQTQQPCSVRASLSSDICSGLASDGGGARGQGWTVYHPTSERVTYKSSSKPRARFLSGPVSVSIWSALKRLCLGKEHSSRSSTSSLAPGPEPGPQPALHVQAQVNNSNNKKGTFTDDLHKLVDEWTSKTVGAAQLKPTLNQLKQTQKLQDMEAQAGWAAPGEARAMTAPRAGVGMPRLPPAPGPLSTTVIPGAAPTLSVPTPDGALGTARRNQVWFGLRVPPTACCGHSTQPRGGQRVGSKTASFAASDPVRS

Serine/threonine-protein kinase MRCK alpha (Homo sapiens), sequence (Q5VT25 whole entry): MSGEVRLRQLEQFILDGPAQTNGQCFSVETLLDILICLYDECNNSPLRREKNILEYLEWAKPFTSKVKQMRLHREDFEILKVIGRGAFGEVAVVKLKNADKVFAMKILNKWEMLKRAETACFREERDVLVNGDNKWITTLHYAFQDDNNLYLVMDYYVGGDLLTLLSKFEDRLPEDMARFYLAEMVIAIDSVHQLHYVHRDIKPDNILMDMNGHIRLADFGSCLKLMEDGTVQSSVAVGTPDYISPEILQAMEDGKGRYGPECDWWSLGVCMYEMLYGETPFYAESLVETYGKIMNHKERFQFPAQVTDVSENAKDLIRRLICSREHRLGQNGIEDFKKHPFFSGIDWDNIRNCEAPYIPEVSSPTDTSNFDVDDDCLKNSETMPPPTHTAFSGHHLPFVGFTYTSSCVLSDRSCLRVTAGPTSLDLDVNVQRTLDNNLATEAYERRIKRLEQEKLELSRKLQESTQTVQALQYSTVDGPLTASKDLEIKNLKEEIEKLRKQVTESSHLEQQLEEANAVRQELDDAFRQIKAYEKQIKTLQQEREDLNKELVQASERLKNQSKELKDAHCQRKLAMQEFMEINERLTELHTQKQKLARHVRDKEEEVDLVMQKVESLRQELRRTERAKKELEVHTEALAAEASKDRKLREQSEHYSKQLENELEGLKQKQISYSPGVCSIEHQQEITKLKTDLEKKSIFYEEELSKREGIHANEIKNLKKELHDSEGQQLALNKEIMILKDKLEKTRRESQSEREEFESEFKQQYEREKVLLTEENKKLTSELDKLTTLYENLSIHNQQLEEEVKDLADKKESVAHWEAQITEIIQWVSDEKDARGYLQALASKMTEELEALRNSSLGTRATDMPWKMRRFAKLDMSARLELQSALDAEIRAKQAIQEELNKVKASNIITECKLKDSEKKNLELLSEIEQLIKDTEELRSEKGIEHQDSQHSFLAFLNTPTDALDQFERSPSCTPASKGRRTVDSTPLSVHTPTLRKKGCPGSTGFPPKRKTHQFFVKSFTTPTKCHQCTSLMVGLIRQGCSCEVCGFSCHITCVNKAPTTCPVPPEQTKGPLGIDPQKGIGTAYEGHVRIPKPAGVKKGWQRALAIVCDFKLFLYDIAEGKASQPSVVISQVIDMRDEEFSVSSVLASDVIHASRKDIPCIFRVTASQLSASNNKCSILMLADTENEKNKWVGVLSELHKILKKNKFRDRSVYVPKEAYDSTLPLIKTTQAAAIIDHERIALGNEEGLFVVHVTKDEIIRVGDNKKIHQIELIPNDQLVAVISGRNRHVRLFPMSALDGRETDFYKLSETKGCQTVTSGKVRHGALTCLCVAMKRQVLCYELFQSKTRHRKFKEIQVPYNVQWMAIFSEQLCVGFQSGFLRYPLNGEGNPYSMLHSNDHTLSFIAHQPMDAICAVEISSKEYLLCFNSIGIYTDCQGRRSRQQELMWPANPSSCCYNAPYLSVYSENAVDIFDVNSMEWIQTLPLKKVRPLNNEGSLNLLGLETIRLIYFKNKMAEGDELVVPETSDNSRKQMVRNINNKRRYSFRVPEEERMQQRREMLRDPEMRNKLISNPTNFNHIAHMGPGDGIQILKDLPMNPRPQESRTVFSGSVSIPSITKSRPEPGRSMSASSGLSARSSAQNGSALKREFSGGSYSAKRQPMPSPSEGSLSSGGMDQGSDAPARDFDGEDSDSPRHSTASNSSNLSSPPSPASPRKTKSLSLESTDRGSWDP
Tyrosine-protein kinase Fes/Fps (Homo sapiens), sequence (P07332 whole entry): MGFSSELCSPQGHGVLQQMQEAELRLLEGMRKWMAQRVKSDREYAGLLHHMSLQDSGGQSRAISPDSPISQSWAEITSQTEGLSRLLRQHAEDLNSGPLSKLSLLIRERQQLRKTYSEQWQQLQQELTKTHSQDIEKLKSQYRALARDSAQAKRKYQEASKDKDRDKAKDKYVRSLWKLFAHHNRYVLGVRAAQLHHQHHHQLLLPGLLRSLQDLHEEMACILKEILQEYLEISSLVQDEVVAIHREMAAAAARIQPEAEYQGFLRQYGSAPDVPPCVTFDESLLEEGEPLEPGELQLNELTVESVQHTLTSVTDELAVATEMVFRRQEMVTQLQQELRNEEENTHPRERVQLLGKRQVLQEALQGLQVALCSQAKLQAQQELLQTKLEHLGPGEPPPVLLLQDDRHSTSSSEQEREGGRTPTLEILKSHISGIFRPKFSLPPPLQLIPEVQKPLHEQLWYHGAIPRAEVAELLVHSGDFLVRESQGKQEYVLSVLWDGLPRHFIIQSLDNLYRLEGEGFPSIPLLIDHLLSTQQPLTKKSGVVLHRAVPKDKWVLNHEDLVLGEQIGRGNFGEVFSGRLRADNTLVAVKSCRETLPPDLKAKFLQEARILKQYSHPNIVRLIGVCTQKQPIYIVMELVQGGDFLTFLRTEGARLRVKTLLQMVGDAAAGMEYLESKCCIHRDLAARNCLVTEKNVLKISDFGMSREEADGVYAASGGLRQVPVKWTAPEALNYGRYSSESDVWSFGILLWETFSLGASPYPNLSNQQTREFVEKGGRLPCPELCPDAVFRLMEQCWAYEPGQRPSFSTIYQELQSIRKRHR
Cyclin-dependent kinase 5, sequence (Q00535 whole entry, looked up): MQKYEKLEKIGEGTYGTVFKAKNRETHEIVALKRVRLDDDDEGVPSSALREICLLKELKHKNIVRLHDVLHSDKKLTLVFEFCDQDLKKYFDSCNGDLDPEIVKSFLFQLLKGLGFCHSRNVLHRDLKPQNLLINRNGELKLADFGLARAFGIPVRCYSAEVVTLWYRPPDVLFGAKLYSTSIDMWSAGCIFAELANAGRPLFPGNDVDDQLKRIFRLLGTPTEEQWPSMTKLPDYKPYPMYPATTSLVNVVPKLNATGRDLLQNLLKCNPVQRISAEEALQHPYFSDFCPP

Structure (SMILES): CN(C)C/C=C/C(=O)Nc1ccc(C(=O)N2CCCC(Nc3ncc(Cl)c(-c4c[nH]c5ccccc45)n3)C2)cc1 (configuration not stated)
- % of control [1]: 97%

Structure (SMILES): Nc1cnc(N2CCc3cc(S(=O)(=O)Nc4c(F)cc(Cl)cc4F)cc(N4CCCC4=O)c32)nc1 [TP-020n]
- % of control [2]: 100%
- % of control [3]: 100%

Structure (SMILES): CNC(=O)Nc1ccc(-c2nc(N3CC4CCC(C3)O4)c3cnn(C4CCC5(CC4)OCCO5)c3n2)cc1
- % of inhibition [4]: 9%

Structure (SMILES): CC[C@@H]1[C@H](F)C(=O)N[C@@H]1COc1nccc2cc(C(N)=O)c(OC)cc12 [ZIMLOVISERTIB]
- % of inhibition [5]: -6.8%

Structure (SMILES): Cc1cc(F)c(C(=O)Nc2cccc(-c3nncn3C(C)C)n2)cc1-n1cnc(C2CC2)c1
- % of control [6]: 100%
- % of control [7]: 78%
